Measured values as given in US20250049831A1, “ANTIVIRAL USE OF BISE[…], AND BISEPOXYLIGNAN COMPOSITION AND PREPARATION OF BISE[…]” (priority 2021, published 2025).
Like-named read-outs stand apart in the source and are kept apart here.

Key:
[1] = test system: Vero cells; assay: Drug cytotoxicity assay (MTT) on Vero cells; type: cell-based, African green monkey; conditions: 72 h, Probit regression
From the text: Vero cells were subcultured for 1-2 d to make them into flakes, and trypsinized in the presence of clear boundaries, strong three-dimensional sense and strong refractive power, until needle-like holes appeared on the cell surfaces; after the trypsinization solution was absorbed completely, a few milliliters of culture medium were taken to blow away the cells; the cells were counted, diluted to about 5×10^7/L with a culture medium (DMEM containing 10% fetal bovine serum), and then inoculated in a 96-well culture plate; and the cells grew into a monolayer.
Cytotoxicity test: the drugs were diluted at the concentrations shown in Table 3-1 for cytotoxicity assay.

[2] = test system: IL-2; assay: Serum IL-2 in mice infected with influenza virus; type: in vivo, ICR mice; conditions: Day 5 after influenza virus infection, gavage once a day, x ± s
Protocol: (§1) On the Day 5 after influenza virus infection, that is, Day 6 after administration, after the mice were fasted with solids for 8 h and weighed, venous blood was collected from the plexus ophthalmicus, and blood from mice in each group was preserved, subjected to serum separation, and stored in a refrigerator for later use. According to the instructions of a test kit, various detection and analysis were carried out, and IL-2 and TNF-α concentrations were calculated based on the standard detection and standard curve plotting.

[3] = test system: parainfluenza virus; assay: Effect of drug on virus-induced CPE (MTT, antiviral effective rate), parainfluenza virus in Vero cells; type: cell-based
[4] = test system: TNF-α; assay: Serum TNF-α in mice infected with influenza virus; type: in vivo, ICR mice; conditions: Day 5 after influenza virus infection, gavage once a day, x ± s
Protocol: as §1

[5] = test system: parainfluenza virus; type: in vivo, Kunming mice; conditions: for Hemagglutination titer inhibition rate (%): Day 5; for Hemagglutination titer: lung suspension, Day 5, […]
[6] = test system: influenza virus; assay: Effect of drug on virus-induced CPE (MTT, antiviral effective rate), influenza virus in Vero cells; type: cell-based
[7] = test system: influenza virus; type: in vivo, Kunming mice; conditions: for Hemagglutination titer inhibition rate (%): Day 5; for Hemagglutination titer: lung suspension
[8] = test system: COVID-19 virus; assay: In-vitro antiviral CPE test in Vero E6 cells, COVID-19 virus; type: cell-based; conditions: Vero E6 cells, 100 TCID50, CPE after 3-4 days; unit not given (drug concentrations 250-15.62 μg/mL); in µg/mL
[9] = test system: COVID-19 Delta virus; assay: Prophylactic administration, virus titer in lung tissues of mice infected with COVID-19 Delta virus; conditions: prophylactic gavage 5 days before infection, Day 5 after infection, TCID50 on VERO E6 cells
[10] = test system: COVID-19 Delta virus; assay: Prophylactic administration, death protection of mice infected with COVID-19 Delta virus; conditions: for Death rate / Survival rate / Mean survival: within 5 days of Delta infection, n = 8; for Mean survival: x ± s
Protocol: hACE2 transgenic C57BL/6 mice were divided (8 mice in each group) into a normal group (NC), a virus infection group (Virus), and drug groups (a COVID-19 Delta virus low-dose (40 mg/kg) group, high-dose (80 mg/kg) group; and a positive control group (Remdesivir 50 mg/kg). Before nasal dripping infection, the drug was administered by gavage 5 days in advance, once a day. After 5 days of continuous gavage, nasal dripping infection was performed, and mice in each COVID-19 virus infection group were infected with COVID-19 Delta virus with 10′ PFU by nasal dripping, except for the normal group who were given PBS by nasal dripping.
After infection, the body weight change was recorded every day, the death of animals within 5 days of infection was recorded, and the mean survival days and mortality rate of 5 days were calculated.

[11] = test system: IL-1β; assay: RT-qPCR of IL-1β in lung homogenate of mice infected with COVID-19 Delta virus; conditions: mRNA RT-qPCR, NC = 1.00
[12] = test system: MCP-1; assay: RT-qPCR of MCP-1 in lung homogenate of mice infected with COVID-19 Delta virus; conditions: mRNA RT-qPCR, NC = 1.00
[13] = test system: influenza virus FM1; assay: Action links (Groups I-IV: prevention, treatment, direct inactivation), protection of cells against influenza virus; type: cell-based; conditions: for Protection rate (ER %), Group IV: drug and virus mixed and adsorbed for 2 h, then added with cells (direct inactivation); for Protection rate (ER %), Group III: drug solution and virus solution added at the same time (direct inactivation); for Protection rate (ER %), Group II: virus added first, drug added 1 h after adsorption (treatment); for Protection rate (ER %), Group I: virus solution added after 24 h of drug administration (prevention)
[14] = test system: parainfluenza virus; assay: Action links (Groups I-IV: prevention, treatment, direct inactivation), protection of cells against parainfluenza virus; type: cell-based; conditions: for Protection rate (ER %), Group IV: drug and virus mixed and adsorbed for 2 h, then added with cells (direct inactivation); for Protection rate (ER %), Group III: drug solution and virus solution added at the same time (direct inactivation); for Protection rate (ER %), Group II: virus added first, drug added 1 h after adsorption (treatment); for Protection rate (ER %), Group I: virus solution added after 24 h of drug administration (prevention)
[15] = prophylactic administration, High dose
[16] = prophylactic administration, Low dose
[17] = high-dose group 80 mg/kg gavage 5 days
[18] = low-dose group 40 mg/kg gavage 5 days

Compound	Maximum non-toxic concentration (TC0) [1] [g/L]	Median toxic concentration (TC50) [1] [µg/mL]	Effective rate, ER %, Parainfluenza Virus [3] [%]	Effective rate, ER %, Influenza Virus [6] [%]	COVID-19 virus IC50 [8]	Protection rate (ER %), Group IV [13] [%]	Protection rate (ER %), Group III [13] [%]	Protection rate (ER %), Group II [13] [%]	Protection rate (ER %), Group I [13] [%]	IL-2 expression level ([2]; High-dose group (26.0 mg/kg))	IL-2 expression level ([2]; Low-dose group (13.0 mg/kg))	TNF-a expression level ([4]; High-dose group (26.0 mg/kg))	TNF-a expression level ([4]; Low-dose group (13.0 mg/kg))	Lung virus titer (x ± s, n = 8) ([9]; high dose 80 mg/kg)	Lung virus titer (x ± s, n = 8) ([9]; low dose 40 mg/kg)	Hemagglutination titer inhibition rate (%) ([5]; 13.0 mg/kg)	Hemagglutination titer ([5]; 13.0 mg/kg)	Hemagglutination titer inhibition rate (%) ([7]; 13.0 mg/kg)	Death rate [10, 15] [%]	Survival rate [10, 15] [%]	further results
CCOC(=O)C1=C[C@@H](OC(CC)CC)[C@H](NC(C)=O)[C@@H](N)C1 [Oseltamivir phosphate, reference compound]	0.29	831	91.16																		IL-2 expression level ([2]; 19.5 mg/kg): 279.83 ± 23.26; TNF-a expression level ([4]; 19.5 mg/kg): 658.91 ± 38.33; Hemagglutination titer inhibition rate (%) ([5]; 19.5 mg/kg): 32.93%; Hemagglutination titer ([5]; 19.5 mg/kg): 23.22 ± 0.648; Effective rate, ER %, Influenza Virus ([6]; Vero cells, 100TCID50, drug at experimental concentration of Table 3-2 (about maximum non-toxic), 72 h, MTT): 81.92%; Hemagglutination titer inhibition rate (%) ([7]; 19.5 mg/kg): 37.78%; Hemagglutination titer ([7]; 19.5 mg/kg, Day 5, titer (InX)): 22.07 ± 0.235
COc1ccc([C@H]2OC[C@H]3[C@@H]2CO[C@H]3c2ccc(O[C@@H]3O[C@H](CO)[C@@H](O)[C@H](O)[C@H]3O)c(OC)c2)cc1OC [compound 2]	0.0067	560	94.43	85.94	63.3																
CCC(CC)COC(=O)[C@H](C)N[P@](=O)(OC[C@H]1O[C@@](C#N)(c2ccc3c(N)ncnn23)[C@H](O)[C@@H]1O)Oc1ccccc1 [Remdesivir, reference compound]																					Lung virus titer (x ± s, n = 8) ([9]; 50 mg/kg): 3.69 ± 1.06; Death rate ([10]; 50 mg/kg): 75.00%; Survival rate ([10]; 50 mg/kg): 25.00%; Mean survival ([10]; 50 mg/kg): 3.88 ± 0.83 days; Death protection rate ([10]; prophylactic administration, 50 mg/kg, within 5 days of infection): 75%; Expression level of IL-1β in lung homogenate (x ± s) ([11]; 50 mg/kg, 5 days): 9.52 ± 6.37; Expression level of MCP-1 in lung homogenate (x ± s) ([12]; 50 mg/kg, 5 days): 6.88 ± 5.73
COc1ccc(C2OCC3C(c4ccc(OC(=O)C(C)c5ccc(CC(C)C)cc5)c(OC)c4)OCC23)cc1OC (stereo not shown) [compound 6]	0.012	310	93.96	84.51	161.8																
COc1cc([C@H]2OC[C@H]3[C@@H]2CO[C@H]3c2ccc(OC)c(OC)c2)ccc1O [Serial No. 3, phillygenin]						100.38	100.86	75.51	75.46	275.59 ± 31.88	306.70 ± 34.88	648.40 ± 27.19	713.48 ± 39.74	2.98 ± 0.73	3.47 ± 0.98	36.28	22.06 ± 0.310	42.20	12.50	87.50	Hemagglutination titer ([7]; 13.0 mg/kg, Day 5, […]): 20.50 ± 0.489; Mean survival [10, 15]: 4.88 ± 0.35 days; Death rate [10, 16]: 75.00%; Survival rate [10, 16]: 25.00%; Mean survival [10, 16]: 4.13 ± 0.64 days; Protection rate (ER %), Group IV [14]: 100.18%; Protection rate (ER %), Group III [14]: 100.46%; Protection rate (ER %), Group II [14]: 85.11%; Protection rate (ER %), Group I [14]: 84.15%; Expression level of IL-1β in lung homogenate (x ± s) [11, 17]: 4.93 ± 16.18; Expression level of IL-1β in lung homogenate (x ± s) [11, 18]: 9.98 ± 11.16; Expression level of MCP-1 in lung homogenate (x ± s) [12, 17]: 3.67 ± 10.22; Expression level of MCP-1 in lung homogenate (x ± s) [12, 18]: 6.71 ± 4.38
COc1ccc([C@H]2OC[C@H]3[C@@H]2CO[C@H]3c2ccc(O[C@@H]3O[C@H](CO)[C@@H](O)[C@H](O)[C@H]3O)c(OC)c2)cc1OC [Serial No. 2, phillyrin]						100.86	100.68	75.58	75.86	262.88 ± 35.66	293.00 ± 21.88	618.38 ± 28.86	683.47 ± 37.37	2.95 ± 0.57	3.70 ± 0.25	37.52	21.63 ± 0.330	43.30	12.50	87.50	Hemagglutination titer ([7]; 13.0 mg/kg, Day 5, […]): 20.11 ± 0.351; Mean survival [10, 15]: 4.88 ± 0.35 days; Death rate [10, 16]: 75.00%; Survival rate [10, 16]: 25.00%; Mean survival [10, 16]: 3.88 ± 0.83 days; Protection rate (ER %), Group IV [14]: 100.93%; Protection rate (ER %), Group III [14]: 100.67%; Protection rate (ER %), Group II [14]: 85.94%; Protection rate (ER %), Group I [14]: 84.48%; Expression level of IL-1β in lung homogenate (x ± s) [11, 17]: 5.11 ± 14.34; Expression level of IL-1β in lung homogenate (x ± s) [11, 18]: 10.58 ± 10.22; Expression level of MCP-1 in lung homogenate (x ± s) [12, 17]: 3.66 ± 11.30; Expression level of MCP-1 in lung homogenate (x ± s) [12, 18]: 7.42 ± 12.66
COc1ccc(C2OCC3C(c4ccc(OC)c(OC)c4)OCC23)cc1O (stereo not shown) [compound 3]	0.012	310	91.41	83.10	166.5																
COc1cc(O)cc(C2OCC3C(c4ccc(OC5OC(CO)C(O)C(O)C5O)c(OC)c4)OCC23)c1 [Serial No. 1, (7,8,7′,8′)-7,7′-bisepoxy-5′-hydroxy-3,3′hydroxy-bismethoxylignan, 4-O-β-D-glucoside]						100.76	100.52	75.77	75.49	259.04 ± 39.98	288.64 ± 25.05	608.95 ± 34.92	673.65 ± 26.44	2.93 ± 0.34	3.36 ± 0.28	37.46	21.65 ± 0.238	43.39	12.50	87.50	Hemagglutination titer ([7]; 13.0 mg/kg, Day 5, titer (InX)): 20.08 ± 0.381; Mean survival [10, 15]: 4.88 ± 0.35 days; Death rate [10, 16]: 75.00%; Survival rate [10, 16]: 25.00%; Mean survival [10, 16]: 4.25 ± 0.46 days; Protection rate (ER %), Group IV [14]: 100.82%; Protection rate (ER %), Group III [14]: 100.49%; Protection rate (ER %), Group II [14]: 85.95%; Protection rate (ER %), Group I [14]: 84.39%; Expression level of IL-1β in lung homogenate (x ± s) [11, 17]: 4.80 ± 18.82; Expression level of IL-1β in lung homogenate (x ± s) [11, 18]: 9.13 ± 8.66; Expression level of MCP-1 in lung homogenate (x ± s) [12, 17]: 3.26 ± 9.77; Expression level of MCP-1 in lung homogenate (x ± s) [12, 18]: 6.13 ± 15.12
COc1cc(O)cc(C2OCC3C(c4ccc(OC5OC(CO)C(O)C(O)C5O)c(OC)c4)OCC23)c1 (stereo not shown) [compound 1]	0.0067	560	99.92	89.02	62.1																
